Laboratory results from the supplement of paper PMC10307832.

Legend:
Test in all cases: relative viability (nuclei count vs DMSO), 5 days (fraction); higher = more cells survive
[1] = compound: C/C(=N\NC(=S)N1CCC1)/C2=CC=CC=N2 + CC(C)C[C@H](NC(=O)[C@H](Cc1ccccc1)NC(=O)c1cnccn1)B(O)O [Bortezomib] (partner 0.002 µM)
In short: (§1)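 Lung cancer cell lines in 1536-well plates got either a single drug or a fixed anchor-drug dose together with five library-drug doses (not always all listed) in √10 steps, by pin tool, on the day after seeding. Nuclei were counted after 5 days, and relative viability is the treated-to-vehicle ratio of nuclei counts. Values are medians of duplicate plates.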

[2] = compound: C/C(=N\NC(=S)N1CCC1)/C2=CC=CC=N2 + COc1cc2c(Oc3ccc(NC(=O)C4(C(=O)Nc5ccc(F)cc5)CC4)cc3F)ccnc2cc1OCCCN1CCOCC1 [Foretinib] (partner 0.25 µM)
In short: as §1

[3] = compound: C/C(=N\NC(=S)N1CCC1)/C2=CC=CC=N2 + CS(=O)(=O)N1CCN(Cc2cc3nc(-c4cccc5[nH]ncc45)nc(N4CCOCC4)c3s2)CC1 [Pictilisib] (partner 1 µM)
In short: as §1

[4] = compound: C/C(=N\NC(=S)N1CCC1)/C2=CC=CC=N2 + CC(=O)c1c(C)c2cnc(Nc3ccc(N4CCNCC4)cn3)nc2n(C2CCCC2)c1=O [Palbociclib] (partner 0.5 µM)
In short: as §1

Cell Line | relative viability ([1]; first compound 0.05 µM) | relative viability ([1]; first compound 0.1581 µM) | relative viability ([1]; first compound 0.5 µM) | relative viability ([1]; first compound 1.581 µM) | relative viability ([1]; first compound 5 µM) | relative viability ([2]; first compound 0.05 µM) | relative viability ([2]; first compound 0.1581 µM) | relative viability ([2]; first compound 0.5 µM) | relative viability ([2]; first compound 1.581 µM) | relative viability ([2]; first compound 5 µM) | relative viability ([3]; first compound 0.05 µM) | relative viability ([3]; first compound 0.1581 µM) | relative viability ([3]; first compound 0.5 µM) | relative viability ([3]; first compound 1.581 µM) | relative viability ([3]; first compound 5 µM) | relative viability ([4]; first compound 0.05 µM) | relative viability ([4]; first compound 0.1581 µM) | relative viability ([4]; first compound 0.5 µM) | relative viability ([4]; first compound 1.581 µM) | relative viability ([4]; first compound 5 µM)
NCI-H3122 | 0.17 | 0.139 | 0.222 | 0.244 | 0.203 | 0.101 | 0.0817 | 0.0973 | 0.149 | 0.158 | 0.15 | 0.129 | 0.167 | 0.23 | 0.187 | 0.0974 | 0.166 | 0.103 | 0.148 | 0.127
PC-3 [JPC-3] | 0.377 | 0.318 | 0.312 | 0.292 | 0.215 | 0.518 | 0.525 | 0.349 | 0.259 | 0.242 | 0.278 | 0.319 | 0.31 | 0.279 | 0.221 | 0.328 | 0.485 | 0.409 | 0.362 | 0.373
PC-14 | 0.114 | 0.106 | 0.0629 | 0.0768 | 0.0781 | 0.141 | 0.113 | 0.129 | 0.0971 | 0.0805 | 0.0639 | 0.0478 | 0.0584 | 0.0411 | 0.0523 | 0.0312 | 0.0553 | 0.052 | 0.0451 | 0.0402
RERF-LC-KJ | 0.256 | 0.298 | 0.304 | 0.243 | 0.267 | 0.292 | 0.261 | 0.297 | 0.28 | 0.259 | 0.19 | 0.17 | 0.173 | 0.18 | 0.191 | 0.211 | 0.19 | 0.194 | 0.198 | 0.212
SK-LU-1 | 0.218 | 0.263 | 0.212 | 0.194 | 0.268 | 0.214 | 0.19 | 0.221 | 0.149 | 0.172 | 0.166 | 0.188 | 0.212 | 0.158 | 0.139 | 0.233 | 0.233 | 0.246 | 0.196 | 0.233
SW 1573 | 0.143 | 0.115 | 0.151 | 0.117 | 0.087 | 0.146 | 0.155 | 0.128 | 0.142 | 0.0856 | 0.102 | 0.0856 | 0.0985 | 0.104 | 0.0817 | 0.0872 | 0.139 | 0.131 | 0.0878 | 0.0783
UMC-11 | 0.175 | 0.173 | 0.141 | 0.141 | 0.101 | 0.249 | 0.212 | 0.223 | 0.183 | 0.185 | 0.19 | 0.174 | 0.189 | 0.144 | 0.133 | 0.155 | 0.139 | 0.238 | 0.213 | 0.169
